Among the data in patent US20110086759A1, “CHEMICAL COMPOUNDS” (SYNGENTA CROP PROTECTION, INC., priority 2007, published 2011) are pest or weed control values, retold here.

What all share (format): in vivo
The test system of experiment [1] is Solanum nigrum (SOLNI). Kind of experiment: Pre-emergence biological efficacy, glasshouse pot test. To be noted: 312 h. An outline of the steps: (§1)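 Visual phytotoxicity (0 no damage, 100 total damage) assessed 13 d after treatment. Soil-sown pots sprayed one day post-sowing; dose 1000 or 250 g/ha; formulation in acetone/water 50:50, 0.5% Tween 20.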
The subject of experiment [2] is Amaranthus retoflexus (AMARE). Described as above. Particulars: Amaranthus retroflexus, 312 h. A digest of the protocol: as §1
Experiment [3] concerns Alopecurus myosuroides (ALOMY). The description is as above. To be noted: 312 h. A digest of the protocol: as §1
In experiment [4] the test system is Ipomea hederaceae (IPOHE). The description is as above. To be noted: Ipomoea hederacea, 312 h. An outline of the steps:
as §1

The subject of experiment [5] is Echinochloa crus-galli (ECHCG). The description is as above. To be noted: 312 h. A digest of the protocol:
as §1

Experiment [6] concerns Setaria faberi (SETFA). The description is as above. To be noted: 312 h. An outline of the steps: as §1
Experiment [7] deals with Solanum nigrum (SOLNI). As to the kind of experiment: Post-emergence biological efficacy, glasshouse pot test. To be noted: 312 h. A digest of the protocol:
(§2)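 Pot-grown weeds were sprayed 8 days after sowing with test compound in acetone/water (50:50) with 0.5% Tween 20 at 1000 or 250 g/ha. Glasshouse at 24/16° C day/night, 14 h light, 65% humidity. Damage scored 0-100 (100 = total damage) after 13 days.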

For experiment [8], the system named is Amaranthus retoflexus (AMARE). Described as above. Particulars: Amaranthus retroflexus, 312 h. An outline of the steps:
as §2

For experiment [9], the system named is Alopecurus myosuroides (ALOMY). The description is as above. Particulars: 312 h. A digest of the protocol:
as §2

Experiment [10] deals with Ipomea hederaceae (IPOHE). The description is as above. To be noted: Ipomoea hederacea, 312 h. An outline of the steps: as §2
Experiment [11] has as its system Echinochloa crus-galli (ECHCG). Described as above. To be noted: 312 h. An outline of the steps: as §2
Experiment [12] deals with Setaria faberi (SETFA). The description is as above. To be noted: 312 h. A digest of the protocol:
as §2

The mark [13] stands for this setting: pre-emergence, 1,000 g/ha, evaluated after 13 days (100=total damage; 0=no damage), read-out: Percentage damage SOLNI.
Setting [14] is: pre-emergence, 1,000 g/ha, evaluated after 13 days (100=total damage; 0=no damage), read-out: Percentage damage AMARE.
The mark [15] stands for this setting: pre-emergence, 1,000 g/ha, evaluated after 13 days (100=total damage; 0=no damage), read-out: Percentage damage ALOMY.
Setting [16] is: pre-emergence, 1,000 g/ha, evaluated after 13 days (100=total damage; 0=no damage), read-out: Percentage damage IPOHE.
Where [17] appears, read: pre-emergence, 1,000 g/ha, evaluated after 13 days (100=total damage; 0=no damage), read-out: Percentage damage ECHCG.
The mark [18] stands for this setting: pre-emergence, 1,000 g/ha, evaluated after 13 days (100=total damage; 0=no damage), read-out: Percentage damage SETFA.
Where [19] appears, read: post-emergence, 1,000 g/ha, evaluated after 13 days (100=total damage; 0=no damage), read-out: Percentage damage caused to weed species, SOLNI.
[20] abbreviates: post-emergence, 1,000 g/ha, evaluated after 13 days (100=total damage; 0=no damage), read-out: Percentage damage caused to weed species, AMARE.
The mark [21] stands for this setting: post-emergence, 1,000 g/ha, evaluated after 13 days (100=total damage; 0=no damage), read-out: Percentage damage caused to weed species, ALOMY.
Setting [22] is: post-emergence, 1,000 g/ha, evaluated after 13 days (100=total damage; 0=no damage), read-out: Percentage damage caused to weed species, IPOHE.
Where [23] appears, read: post-emergence, 1,000 g/ha, evaluated after 13 days (100=total damage; 0=no damage), read-out: Percentage damage caused to weed species, ECHCG.
[24] abbreviates: post-emergence, 1,000 g/ha, evaluated after 13 days (100=total damage; 0=no damage), read-out: Percentage damage caused to weed species, SETFA.
Where [25] appears, read: pre-emergence, rate 1,000 g/ha, evaluated after 13 days (100=total damage to plant; 0=no damage), read-out: Percentage damage caused to weed species, SOLNI.
Where [26] appears, read: pre-emergence, rate 1,000 g/ha, evaluated after 13 days (100=total damage to plant; 0=no damage), read-out: Percentage damage caused to weed species, AMARE.
The mark [27] stands for this setting: pre-emergence, rate 1,000 g/ha, evaluated after 13 days (100=total damage to plant; 0=no damage), read-out: Percentage damage caused to weed species, ALOMY.
The mark [28] stands for this setting: pre-emergence, rate 1,000 g/ha, evaluated after 13 days (100=total damage to plant; 0=no damage), read-out: Percentage damage caused to weed species, IPOHE.
Where [29] appears, read: pre-emergence, rate 1,000 g/ha, evaluated after 13 days (100=total damage to plant; 0=no damage), read-out: Percentage damage caused to weed species, ECHCG.
Setting [30] is: pre-emergence, rate 1,000 g/ha, evaluated after 13 days (100=total damage to plant; 0=no damage), read-out: Percentage damage caused to weed species, SETFA.
The mark [31] stands for this setting: Rate 1,000 g/ha, post-emergence spray, evaluated after 13 days (100=total damage to plant; 0=no damage to plant), read-out: Percentage damage caused to weed species, post-emergence, SOLNI.
[32] abbreviates: Rate 1,000 g/ha, post-emergence spray, evaluated after 13 days (100=total damage to plant; 0=no damage to plant), read-out: Percentage damage caused to weed species, post-emergence, AMARE.
Setting [33] is: Rate 1,000 g/ha, post-emergence spray, evaluated after 13 days (100=total damage to plant; 0=no damage to plant), read-out: Percentage damage caused to weed species, post-emergence, ALOMY.
The mark [34] stands for this setting: Rate 1,000 g/ha, post-emergence spray, evaluated after 13 days (100=total damage to plant; 0=no damage to plant), read-out: Percentage damage caused to weed species, post-emergence, IPOHE.
Setting [35] is: Rate 1,000 g/ha, post-emergence spray, evaluated after 13 days (100=total damage to plant; 0=no damage to plant), read-out: Percentage damage caused to weed species, post-emergence, ECHCG.
[36] abbreviates: Rate 1,000 g/ha, post-emergence spray, evaluated after 13 days (100=total damage to plant; 0=no damage to plant), read-out: Percentage damage caused to weed species, post-emergence, SETFA.

Take `COC(=O)c1nc(C2CC2)nc(NCc2ccsc2Br)c1Cl` [Compound 4-143, 4-(2-Bromothiophen-3-ylmethylamino)-5-chloro-2-cyclopropyl-6-methoxycarbonyl-pyrimidine]: the pest or weed control at 1000 g/ha in the experiment with Solanum nigrum (SOLNI) [1] (setting [13]) stood at 50%; in [2] (setting [14]) it was 70%; in [3] (setting [15]), 0%; in experiment [4] (setting [16]), 80%; in experiment [5] (setting [17]) it was 20%; in the experiment on Setaria faberi (SETFA) [6] (setting [18]), 0%. Further, the pest or weed control at 1000 g/ha in the experiment with Solanum nigrum (SOLNI) [7] (setting [19]) worked out at 90%; in experiment [8] (setting [20]) it was 90%; in [9] (setting [21]), 20%; in [10] (setting [22]), 100%; in [11] (setting [23]) it was 60%; in the experiment with Setaria faberi (SETFA) [12] (setting [24]), 70%.

In the case of `COC(=O)c1nc(C2CC2)nc(N(C)Cc2ccc(C)cc2)c1Cl` [Compound 5-73, 5-Chloro-2-cyclopropyl-6-methoxycarbonyl-4-[N-methyl-N-(4-methylphenyl)-methylamino]-pyrimidine], the pest or weed control at 1000 g/ha with Solanum nigrum (SOLNI) [1] (setting [25]) came to 20%; in experiment [2] (setting [26]), 80%; in experiment [3] (setting [27]) it was 0%; in experiment [4] (setting [28]), 30%; in [5] (setting [29]) it was 0%; with Setaria faberi (SETFA) [6] (setting [30]), 0%. For the same compound, the pest or weed control at 1000 g/ha in the experiment on Solanum nigrum (SOLNI) [7] (setting [31]) amounted to 70%; in [8] (setting [32]), 100%; in experiment [9] (setting [33]), 10%; in experiment [10] (setting [34]), 100%; in [11] (setting [35]), 10%; in the experiment with Setaria faberi (SETFA) [12] (setting [36]) it was 50%.

As for `COC(=O)c1nc(C2CC2)nc(NC(C)C2CC2)c1Cl` (stereo not drawn) [Compound 4-171, 5-Chloro-2-cyclopropyl-4-(1-cyclopropylethyl-amino)-6-methoxy-carbonylpyrimidine], the pest or weed control at 1000 g/ha with Solanum nigrum (SOLNI) [1] (setting [13]) is 40%; in experiment [2] (setting [14]) it was 90%; in [3] (setting [15]) it was 30%; in experiment [4] (setting [16]) it was 100%; in experiment [5] (setting [17]), 70%; in the experiment with Setaria faberi (SETFA) [6] (setting [18]), 40%. Also, the pest or weed control at 1000 g/ha amounted to 90% with Solanum nigrum (SOLNI) [7] (setting [19]); 100% in experiment [8] (setting [20]); 40% in experiment [9] (setting [21]); 90% in [10] (setting [22]); 60% in [11] (setting [23]); 90% with Setaria faberi (SETFA) [12] (setting [24]).

In the case of `CCN(Cc1ccccc1F)c1nc(C2CC2)nc(C(=O)OC)c1Cl` [Compound 6-64, 5-Chloro-2-cyclopropyl-4-[N-ethyl-N-(2-fluoro-phenyl)methyl-amino]-6-methoxycarbonyl-pyrimidine], the pest or weed control at 1000 g/ha was found to be 20% in the experiment with Solanum nigrum (SOLNI) [1] (setting [25]); 60% in experiment [2] (setting [26]); 10% in experiment [3] (setting [27]); 50% in experiment [4] (setting [28]); 20% in experiment [5] (setting [29]); 30% in the experiment with Setaria faberi (SETFA) [6] (setting [30]). The pest or weed control at 1000 g/ha is 100% with Solanum nigrum (SOLNI) [7] (setting [31]); 100% in experiment [8] (setting [32]); 30% in [9] (setting [33]); 100% in [10] (setting [34]); 70% in experiment [11] (setting [35]); 90% with Setaria faberi (SETFA) [12] (setting [36]).

Consider `CC(C)COC(=O)c1nc(C2CC2)nc(NCc2ccco2)c1Cl` [Compound 199-125, 5-Chloro-2-cyclopropyl-4-(2-furanylmethyl-amino)-6-iso-butoxycarbonyl-pyrimidine], for which the pest or weed control at 1000 g/ha in the experiment on Solanum nigrum (SOLNI) [1] (setting [25]) was determined as 100%; in [2] (setting [26]), 100%; in experiment [3] (setting [27]), 40%; in experiment [4] (setting [28]), 100%; in [5] (setting [29]), 50%; in the experiment on Setaria faberi (SETFA) [6] (setting [30]), 80%. In addition, the pest or weed control at 1000 g/ha in the experiment on Solanum nigrum (SOLNI) [7] (setting [31]) amounted to 80%; in experiment [8] (setting [32]), 100%; in experiment [9] (setting [33]), 20%; in experiment [10] (setting [34]) it was 100%; in experiment [11] (setting [35]), 70%; in the experiment on Setaria faberi (SETFA) [12] (setting [36]), 70%.

As to `COC(=O)c1nc(-c2ccc(Cl)c(F)c2F)nc(NCc2ccco2)c1Cl` [Compound 225-48, 5-Chloro-2-(4-chloro-2,3-difluorophenyl)-4-(furan-2-ylmethyl-amino)-6-methoxy-carbonylpyrimidine], the pest or weed control at 1000 g/ha with Solanum nigrum (SOLNI) [1] (setting [25]) amounted to 90%; in experiment [2] (setting [26]) it was 100%; in experiment [3] (setting [27]), 60%; in experiment [4] (setting [28]), 70%; in experiment [5] (setting [29]) it was 30%; in the experiment with Setaria faberi (SETFA) [6] (setting [30]), 80%. For the same compound, the pest or weed control at 1000 g/ha was found to be 90% with Solanum nigrum (SOLNI) [7] (setting [31]); 100% in [8] (setting [32]); 60% in experiment [9] (setting [33]); 90% in experiment [10] (setting [34]); 60% in experiment [11] (setting [35]); 80% with Setaria faberi (SETFA) [12] (setting [36]).

As to `COC(=O)c1nc(C2CC2)nc(N[C@@H](Cc2ccc(O)cc2)C(=O)OC)c1Cl` [4-287 (S), 5-Chloro-2-cyclopropyl-4-[(1S)-2-(4-hydroxyphenyl)-1-methoxycarbonyl-ethylamino]-6-methoxycarbonyl-pyrimidine], the pest or weed control at 1000 g/ha with Solanum nigrum (SOLNI) [1] (setting [13]) amounted to 80%; in experiment [2] (setting [14]) it was 80%; in experiment [3] (setting [15]) it was 20%; in experiment [4] (setting [16]) it was 80%; in experiment [5] (setting [17]), 10%; with Setaria faberi (SETFA) [6] (setting [18]) it was 20%. The pest or weed control at 1000 g/ha with Solanum nigrum (SOLNI) [7] (setting [19]) was determined as 80%; in experiment [8] (setting [20]) it was 100%; in experiment [9] (setting [21]), 20%; in experiment [10] (setting [22]), 70%; in experiment [11] (setting [23]), 60%; in the experiment on Setaria faberi (SETFA) [12] (setting [24]), 40%.
